US20240041042A1, “1-(PYRIDYL)-5-AZINYLPYRAZOLE DERIVATIVES, AND THEIR USE FOR CONTROL OF UNDESIRED PLANT GROWTH” (Bayer Aktiengesellschaft, priority 2020, published 2024)
Read-outs that look alike come from different tables or passages of the source.

Key:
Assay type in all cases: in vivo
[1] = system: Digitaria sanguinalis (DIGSA); assay: Post-emergence herbicidal action against DIGSA; conditions: visual rating about 3 weeks after treatment
Summary of the method: (§1)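 Post-emergence greenhouse spray, one-leaf stage, 600 l/ha water plus 0.5% additive; WP or EC formulations; application rates 320 g/ha or lower. Visual % damage vs untreated controls at ~3 weeks.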

[2] = system: Digitaria sanguinalis (DIGSA); assay: Pre-emergence herbicidal action against DIGSA
Summary of the method: (§2)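 Application rates ran to 320 g/ha or lower, with several dosages tested on the same weeds. The compound, as wettable powder or emulsion concentrate, is sprayed pre-emergence onto soil over sown seeds; greenhouse growth follows, and effect is rated visually after roughly 3 weeks.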

[3] = system: Lolium rigidum (LOLRI); assay: Pre-emergence herbicidal action against LOLRI
Summary of the method: as §2

[4] = system: Pharbitis purpurea (PHBPU); assay: Pre-emergence herbicidal action against PHBPU
Summary of the method: as §2

[5] = system: Abutilon theophrasti (ABUTH); assay: Pre-emergence herbicidal action against ABUTH; conditions: 100% = plants have died
Summary of the method: as §2

[6] = system: Abutilon theophrasti (ABUTH); assay: Post-emergence herbicidal action against ABUTH; conditions: visual rating about 3 weeks after treatment vs untreated controls (100% = plants have died, 0% = like control plants)
Summary of the method: as §1

[7] = system: Oryza sativa (ORYSA); conditions: crop plant compatibility, effect in comparison to untreated controls
Summary of the method: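 Effects were read visually as % versus untreated controls (0% = no effect, 100% = death) about 3 weeks post-treatment. Application was a post-emergence spray at the one-leaf stage of WP/EC formulations with 0.5% additive at 600 l/ha. Different dosages are denoted a, b and c.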

[8] = 80 g/ha, visual scoring after about 3 weeks vs untreated controls
[9] = Dosage column 320 g/ha (title prints 3200 g/ha), scored visually after about 3 weeks
[10] = 80 g/ha, scored visually after about 3 weeks vs untreated controls, 0% = like control plants

SMILES | Post-emergence action against DIGSA in % ([1]; 80 g/ha) [%] | Post-emergence action against DIGSA in % ([1]; 320 g/ha) [%] | Pre-emergence action against DIGSA in % [2, 8] [%] | Pre-emergence action against DIGSA in % ([2]; dosage 320 g/ha) [%] | Pre-emergence action against LOLRI in % ([3]; dosage 80 g/ha) [%] | Pre-emergence action against LOLRI in % ([3]; dosage 320 g/ha) [%] | Pre-emergence action against PHBPU in % ([4]; dosage 80 g/ha) [%] | Pre-emergence action against PHBPU in % ([4]; dosage 320 g/ha) [%] | Pre-emergence action against ABUTH [5, 9] [%] | Post-emergence action against ABUTH in % ([6]; 80 g/ha) [%] | Post-emergence action against ABUTH in % ([6]; 320 g/ha) [%] | Pre-emergence action against ABUTH [5, 10] [%] | Post-emergence action against ORYSA in % ([7]; 80 g/ha) [%] | Post-emergence action against ORYSA in % ([7]; 320 g/ha) [%]
CCOC(=O)COc1nn(-c2ncccc2F)c(-c2cncc(F)c2)c1C1CC1 [Example I-174] | 90 | 90 | 100 | 100 | 100 | 100 | 90 | 90 | 90 | 80 | 80 | – | – | –
COC(=O)COc1nn(-c2ncccc2F)c(-c2cncc(F)c2)c1C1CC1 [Example I-167] | 90 | 90 | 100 | 100 | 100 | 100 | 90 | 90 | 90 | 80 | 80 | – | – | –
COC(=O)[C@@H](C)Oc1nn(-c2ncccc2F)c(-c2ccc(F)nc2)c1Br [Example I-05, Methyl (2R)-2-{[4-bromo-1-(3-fluoropyridin-2-yl)-5-(6-fluoropyridin-3-yl)-1H-pyrazol-3-yl]oxy}propanoate] | – | 90 | 100 | 100 | 80 | 100 | – | – | 80 | 80 | 80 | – | – | –
CCOC(=O)COc1nn(-c2nc(F)ccc2F)c(-c2cncc(F)c2)c1C1CC1 [Example I-149] | 80 | 90 | 90 | 100 | 100 | 100 | 80 | 90 | 80 | – | – | – | – | –
COC(=O)COc1nn(-c2nc(F)ccc2F)c(-c2cncc(F)c2)c1C1CC1 [Example I-164] | 80 | 90 | 90 | 100 | 100 | 100 | 80 | 90 | 80 | – | – | – | – | –
CCOC(=O)[C@@H](C)Oc1nn(-c2ncccc2F)c(-c2ccc(F)nc2)c1C1CC1 [Example I-375] | – | – | – | – | 100 | 100 | 80 | 90 | 100 | 90 | 90 | – | – | –
COC(=O)C(C)NC(=O)[C@@H](C)Oc1nn(-c2ccccn2)c(-c2cncc(F)c2)c1Cl (stereo partly shown) [Example I-199] | – | – | – | – | 100 | 100 | 80 | 90 | 90 | – | 80 | 80 | – | –
COC(=O)[C@@H](C)Oc1nn(-c2ncccc2F)c(-c2ccc(F)nc2)c1C(F)(F)F [Example I-331] | – | – | – | – | 90 | 100 | – | 90 | 90 | 90 | 90 | 80 | – | –
COC(=O)[C@@H](C)Oc1nn(-c2nc(F)ccc2F)c(-c2cncc(F)c2)c1Br [Example I-191] | – | – | – | – | 90 | 90 | 80 | 90 | 90 | 80 | 80 | – | – | –
C[C@@H](Oc1nn(-c2ccccn2)c(-c2cncc(F)c2)c1Cl)C(=O)O [Example I-218] | – | – | – | – | 100 | 100 | 90 | 90 | 90 | 80 | 80 | 80 | – | –
COC(=O)CNC(=O)[C@@H](C)Oc1nn(-c2ccccn2)c(-c2cncc(F)c2)c1Br [Example I-187] | – | – | – | – | 90 | 100 | 90 | 90 | 90 | – | 80 | 80 | 10 | 20
COC(=O)CCOC(=O)[C@@H](C)Oc1nn(-c2ccccn2)c(-c2cncc(F)c2)c1Cl [Example I-196] | – | – | – | – | 100 | 100 | 90 | 90 | 90 | 80 | 80 | 80 | – | –
COC(=O)C(C)NC(=O)[C@@H](C)Oc1nn(-c2ccccn2)c(-c2cncc(F)c2)c1Br (stereo partly shown) [Example I-190] | – | – | – | – | 100 | 100 | 90 | 90 | 80 | 80 | 80 | – | 20 | –
C[C@@H](Oc1nn(-c2ncccc2F)c(-c2ccc(F)nc2)c1I)C(=O)O [Example I-343] | – | – | – | – | 90 | 90 | 80 | 90 | 100 | 80 | 90 | 80 | 10 | –
COC(=O)C(C)COC(=O)[C@@H](C)Oc1nn(-c2ccccn2)c(-c2cncc(F)c2)c1Br (stereo partly shown) [Example I-188] | – | – | – | – | 100 | 100 | 80 | 90 | 90 | 80 | 80 | 80 | 20 | –
CCOC(=O)[C@@H](C)Oc1nn(-c2ccccn2)c(-c2cncc(F)c2)c1Cl [Example I-184] | – | – | – | – | 100 | 100 | 80 | 90 | 90 | 80 | 90 | 90 | – | –
COC(=O)C(C)COC(=O)[C@@H](C)Oc1nn(-c2ccccn2)c(-c2cncc(F)c2)c1Cl (stereo partly shown) [Example I-198] | – | – | – | – | 100 | 100 | 80 | 90 | 90 | 80 | 80 | – | – | –
